T/C data for 25 compounds are collected here from PubChem BioAssay AID330 (DTP/NCI, 2004).

“And” between values parts separate entries of the source, which are not always exact repeats. Equal entries are not always repeated. Toxic doses and inconclusive results are not listed.

The subject of this test is P388 leukemia ip, CD2F1 mice, survival T/C. Briefly: NCI In Vivo Anticancer Drug Screen. Data for tumor model P388 Leukemia (intraperitoneal) in CD2F1 (CDF1) mice. The conditions noted are these: endpoint: median survival time, higher = longer survival. A digest of the protocol: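 Mice carrying the transplanted tumor received test compound or vehicle. Survival was recorded in each group, and the value is the treated-group measurement divided by that of the vehicle-treated control group.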

Where [1] appears, read: dose: 60.0 mg/kg/injection, schedule: Q01DX005 (ip), vehicle: saline.
The mark [2] stands for this setting: dose: 50.0 mg/kg/injection, schedule: Q01DX009 (ip), vehicle: saline.
The mark [3] stands for this setting: dose: 100.0 mg/kg/injection, schedule: Q01DX009 (ip), vehicle: saline.
The mark [4] stands for this setting: dose: 60.0 mg/kg/injection, schedule: Q01DX005 (ip), vehicle: saline with Tween-80.
[5] abbreviates: dose: 120.0 mg/kg/injection, schedule: Q01DX005 (ip), vehicle: saline with Tween-80.
[6] abbreviates: dose: 240.0 mg/kg/injection, schedule: Q01DX005 (ip), vehicle: saline with Tween-80.
[7] abbreviates: dose: 6.25 mg/kg/injection, schedule: Q01DX005 (ip), vehicle: saline with Tween-80.
[8] abbreviates: dose: 12.5 mg/kg/injection, schedule: Q01DX005 (ip), vehicle: saline with Tween-80.
The mark [9] stands for this setting: dose: 25.0 mg/kg/injection, schedule: Q01DX005 (ip), vehicle: saline with Tween-80.
Where [10] appears, read: dose: 50.0 mg/kg/injection, schedule: Q01DX005 (ip), vehicle: Klucel (hydroxypropylcellulose) (HPC).
Where [11] appears, read: dose: 100.0 mg/kg/injection, schedule: Q01DX005 (ip), vehicle: Klucel (hydroxypropylcellulose) (HPC).
[12] abbreviates: dose: 100.0 mg/kg/injection, schedule: Q04DX002 (ip), vehicle: saline with Tween-80.
Where [13] appears, read: dose: 200.0 mg/kg/injection, schedule: Q04DX002 (ip), vehicle: saline with Tween-80.
The mark [14] stands for this setting: dose: 400.0 mg/kg/injection, schedule: Q04DX002 (ip), vehicle: saline with Tween-80.
The mark [15] stands for this setting: dose: 50.0 mg/kg/injection, schedule: Q01DX005 (ip), vehicle: saline with Tween-80.
The mark [16] stands for this setting: dose: 12.5 mg/kg/injection, schedule: Q01DX009 (ip), vehicle: saline.
The mark [17] stands for this setting: dose: 25.0 mg/kg/injection, schedule: Q01DX009 (ip), vehicle: saline.

As for `CCOC1=N[C@H]2CCCC[C@H]2N1`, the T/C was 98 % of control (dose: 15.0 mg/kg/injection, schedule: Q01DX005 (ip), vehicle: saline); 96 % of control (dose: 30.0 mg/kg/injection, schedule: Q01DX005 (ip), vehicle: saline); 102 % of control and 98 % of control under setting [1].
Take `CCN(CC)CCOc1cccc2c1C(=O)c1ccccc1C2=O`: the T/C was 105 % of control and 98 % of control under setting [2]; 106 % of control under setting [3].
On to `COC(=O)C1(CC(=O)C(c2ccccc2)c2ccccc2)NC(=S)NC(=O)C1C#N` (centres undefined), for which the T/C reads like this: under setting [1], 98 % of control; (dose: 120.0 mg/kg/injection, schedule: Q01DX005 (ip), vehicle: saline) 95 % of control; (dose: 240.0 mg/kg/injection, schedule: Q01DX005 (ip), vehicle: saline) 100 % of control.
As for `CC(C)N1CCOC(c2cccc(C(F)(F)F)c2)C1` (centres undefined), the T/C under setting [2] is 101 % of control and the T/C under setting [3] is 99 % of control.
On to `O=C(CNC(=O)Nc1cccc([N+](=O)[O-])c1)NNC(=O)Nc1ccc(Cl)c([N+](=O)[O-])c1`, for which the T/C by setting is: under setting [4], 91 % of control; under setting [5], 91 % of control; under setting [6], 106 % of control.
Regarding `CCS(=O)(=O)c1ccc(N2C(N)=NC(N)=NC2(C)C)cc1`, the T/C under setting [7] is 103 % of control, the T/C under setting [8] is 100 % of control and the T/C under setting [9] is 103 % of control.
With `ClC(Cl)(Cl)C1[O][Sb]([c]2ccccc2)([c]2ccccc2)([c]2ccccc2)[O]1` (centres undefined), the T/C by setting is: (dose: 50.0 mg/kg/injection, schedule: Q01DX009 (ip), vehicle: Klucel (hydroxypropylcellulose) (HPC)) 90 % of control; (dose: 100.0 mg/kg/injection, schedule: Q01DX009 (ip), vehicle: Klucel (hydroxypropylcellulose) (HPC)) 101 % of control.
Regarding `CC1=C(CO)C(=O)OC(C(C)C2CCC3C4CC5OC56C(O)C(N5CC5)=CC(=O)C6(C)C4CCC23C)C1` (centres undefined), the T/C is 110 % of control (dose: 5.0 mg/kg/injection, schedule: Q01DX005 (ip), vehicle: Klucel (hydroxypropylcellulose) (HPC)); 120 % of control and 91 % of control and 97 % of control (dose: 10.0 mg/kg/injection, schedule: Q01DX005 (ip), vehicle: Klucel (hydroxypropylcellulose) (HPC)); 103 % of control and 104 % of control and 123 % of control (dose: 20.0 mg/kg/injection, schedule: Q01DX005 (ip), vehicle: Klucel (hydroxypropylcellulose) (HPC)); 103 % of control and 106 % of control and 123 % of control (dose: 40.0 mg/kg/injection, schedule: Q01DX005 (ip), vehicle: Klucel (hydroxypropylcellulose) (HPC)); 108 % of control and 109 % of control (dose: 80.0 mg/kg/injection, schedule: Q01DX005 (ip), vehicle: Klucel (hydroxypropylcellulose) (HPC)); 105 % of control (dose: 160.0 mg/kg/injection, schedule: Q01DX005 (ip), vehicle: Klucel (hydroxypropylcellulose) (HPC)).
`O=C1CCOCCCOCCC(=O)OCCCO1`: the T/C runs as follows: under setting [10], 104 % of control; under setting [11], 101 % of control; (dose: 200.0 mg/kg/injection, schedule: Q01DX005 (ip), vehicle: Klucel (hydroxypropylcellulose) (HPC)) 101 % of control.
As for `COc1cc2ccc3c(c2cc1OC)N(C)C(OC)c1cc2c(cc1-3)OCO2` (centres undefined), the T/C was 153 % of control (dose: 10.0 mg/kg/injection, schedule: Q01DX009 (ip), vehicle: Klucel (hydroxypropylcellulose) (HPC)); 173 % of control (dose: 40.0 mg/kg/injection, schedule: Q01DX009 (ip), vehicle: Klucel (hydroxypropylcellulose) (HPC)); 110 % of control (dose: 80.0 mg/kg/injection, schedule: Q01DX009 (ip), vehicle: Klucel (hydroxypropylcellulose) (HPC)).
Take `C=C(CBr)CCCCC`: the T/C by setting is: under setting [4], 104 % of control; under setting [5], 105 % of control; under setting [6], 117 % of control.
On the same counts, the results for `O=Cc1cc(-c2ccccc2)n(-c2ccccc2)c1-c1ccccc1` are 96 % of control, 98 % of control and 97 % of control.
On the same counts, the results for `CCOC(=O)c1nc(SC)n(C)c1C(=O)OCC` are 100 % of control, 100 % of control and 105 % of control.
For the compound `CCCN1C(=O)C(C)N(S(=O)(=O)c2ccc(-n3nc(C)cc3C)cc2)C1=S` (centres undefined), the T/C reads like this: under setting [12], 94 % of control; under setting [13], 102 % of control; under setting [14], 100 % of control.
`O=C1Nc2c(Cl)cc(Cl)cc2/C1=N/N=C/c1ccccc1O`: the T/C under setting [15] is 91 % of control.
Regarding `C/C(=C/c1cc(Br)c(O)c(Br)c1)[N+](=O)[O-]`, the T/C is 100 % of control (dose: 6.25 mg/kg/injection, schedule: Q01DX009 (ip), vehicle: saline); 110 % of control and 90 % of control under setting [16]; 106 % of control (dose: 12.5 mg/kg/injection, schedule: Q04DX003 (ip), vehicle: saline); 109 % of control and 90 % of control under setting [17]; 100 % of control (dose: 25.0 mg/kg/injection, schedule: Q04DX003 (ip), vehicle: saline); 100 % of control (dose: 50.0 mg/kg/injection, schedule: Q04DX003 (ip), vehicle: saline). The T/C under setting [3] is 90 % of control and the T/C (dose: 100.0 mg/kg/injection, schedule: Q04DX003 (ip), vehicle: saline with Tween-80) was 98 % of control.
Take `Cc1ccc(C2=C(C#N)C(c3ccccc3)C(C#N)=C(N)O2)cc1` (centres undefined): the T/C runs as follows: under setting [10], 97 % of control; under setting [11], 95 % of control.
Regarding `CCOC(=O)C1CSC2(CCCC2)N1` (centres undefined), the T/C is, setting by setting: under setting [12], 110 % of control; under setting [13], 109 % of control; under setting [14], 100 % of control.
Turning to `CC[As](=O)(O)CC(C)C`, the T/C is, setting by setting: (dose: 25.0 mg/kg/injection, schedule: Q04DX002 (ip), vehicle: saline) 100 % of control; (dose: 50.0 mg/kg/injection, schedule: Q04DX002 (ip), vehicle: saline) 100 % of control.
`CCOc1ccc2nc3cc(N=Nc4cc5ccccc5[nH]4)ccc3c(N)c2c1`: the T/C (dose: 100.0 mg/kg/injection, schedule: Q01DX001 (ip), vehicle: saline with Tween-80) was 97 % of control; the T/C (dose: 200.0 mg/kg/injection, schedule: Q01DX001 (ip), vehicle: saline with Tween-80) is 94 % of control; the T/C (dose: 400.0 mg/kg/injection, schedule: Q01DX001 (ip), vehicle: saline with Tween-80) is 103 % of control.
Consider `CCOC(=O)C1=C(C(=O)c2ccccc2)C(c2cccc([N+](=O)[O-])c2)C(C(=O)c2ccccc2)=C(C(=O)OCC)N1`, for which the T/C is 104 % of control (dose: 30.0 mg/kg/injection, schedule: Q01DX005 (ip), vehicle: saline with Tween-80); 104 % of control under setting [4]; 104 % of control under setting [5]; 104 % of control under setting [6].
Regarding `CNc1ncnc2c1ccn2C1OC(CO)C(O)C1O` (centres undefined), the T/C was 100 % of control under setting [7], 108 % of control under setting [8] and 100 % of control under setting [9].
As for `CN1CCN(CN2C(=O)C3C4C=CC(C3C2=O)C2C(=O)N(CN3CCN(C)CC3)C(=O)C42)CC1` (centres undefined), the T/C is 108 % of control under setting [16]; 105 % of control under setting [17]; 108 % of control under setting [2]; 113 % of control under setting [3]; 122 % of control (dose: 200.0 mg/kg/injection, schedule: Q01DX009 (ip), vehicle: saline).
As for `O=C(O)C1CCC(CNCC2C(=O)OC3CCC4C(O)CC(O)C4CC32)CC1` (centres undefined), the T/C is 97 % of control (dose: 100.0 mg/kg/injection, schedule: Q04DX002 (ip), vehicle: saline); 100 % of control (dose: 200.0 mg/kg/injection, schedule: Q04DX002 (ip), vehicle: saline); 105 % of control (dose: 400.0 mg/kg/injection, schedule: Q04DX002 (ip), vehicle: saline).
Consider `O=C1c2ccccc2C(=O)N1N1CC1c1ccccc1` (centres undefined), for which the T/C is 106 % of control under setting [15]; 101 % of control (dose: 100.0 mg/kg/injection, schedule: Q01DX005 (ip), vehicle: saline with Tween-80); 97 % of control (dose: 200.0 mg/kg/injection, schedule: Q01DX005 (ip), vehicle: saline with Tween-80).
